Measured values published in patent US11986540B2, “Compositions including pafolacianine for the identification of malignant lesions” (ON TARGET LABORATORIES, LLC., priority 2022, dated 2024).

Key:
[1] = tested on: FR-positive KB cell tumor xenografts; assay: Whole body imaging and tissue distribution, FR-positive KB tumor xenografts; assay type: in vivo, mice; details: compared with pafolacianine
Procedure: Whole body imaging and tissue distribution of pafolacianine and OTL0039 was performed in female nu/nu mice bearing FR-positive KB cell tumor xenografts. […] This observation was consistent with the lower binding affinity of the D-isomer for FR compared with the L-isomer. Tumor fluorescence was brighter in mice receiving pafolacianine compared with other folate-conjugated near infrared dyes such as LS288, IR800 and ZW800.
The optimal dose range for pafolacianine with respect to tumor-to-background ratio in FR-positive tumor-bearing mice was 1 to 30 nmol/mouse, with lower fluorescence intensity observed in tumors at a lower dose (0.3 nmol) and higher fluorescence intensity observed in other tissues at doses above 30 nmol. In a second experiment, pafolacianine whole body imaging and tissue distribution was examined again; however, this experiment was performed in female nu/nu mice bearing FR-negative A549 cell tumor xenografts.

[2] = tested on: cytochrome P450 (CYP) enzymes; assay: Metabolism by CYP enzymes; assay type: in vitro ADME
[3] = Excretion after single IV infusion of radiolabeled pafolacianine sodium; assay type: in vivo; details: after approximately 3-5 weeks

| Structure (SMILES) | fluorescence signal intensity in tumors and kidneys [1] | metabolism by cytochrome P450 (CYP) enzymes [2] | dose recovered in feces [3] | dose recovered in urine [3] | dose recovered in urine and feces [3] |
| --- | --- | --- | --- | --- | --- |
| CC1(C)C(=CC=C2CCCC(C=CC3=[N+](CCCCS(=O)(=O)[O-])c4ccc(S(=O)(=O)O)cc4C3(C)C)=C2Oc2ccc(C[C@@H](NC(=O)c3ccc(NCc4cnc5nc(N)[nH]c(=O)c5n4)cc3)C(=O)O)cc2)N(CCCCS(=O)(=O)O)c2ccc(S(=O)(=O)O)cc21 [OTL0039, reference compound] | weaker fluorescence signal intensity than pafolacianine |  |  |  |  |
| CC1(C)C(/C=C/C2=C(Oc3ccc(C[C@H](NC(=O)c4ccc(NCc5cnc6nc(N)[nH]c(=O)c6n5)cc4)C(=O)[O-])cc3)C(=C/C=C3/N(CCCCS(=O)(=O)[O-])c4ccc(S(=O)(=O)[O-])cc4C3(C)C)/CCC2)=[N+](CCCCS(=O)(=O)[O-])c2ccc(S(=O)(=O)[O-])cc21.O.[Na+].[Na+].[Na+].[Na+] [pafolacianine sodium, (S)-2-(4-(((2-amino-4-oxo-3,4-dihydropteridin-6-yl)methyl)amino)benzamido)-3-(4-(((E)-2-((E)-2-(3,3-dimethyl-5-sulfonato-1-(4-sulfonatobutyl)-3H-indol-1-ium-2-yl)vinyl)-6-((E)-2-(3,3-dimethyl-5-sulfonato-1-(4-sulfonatobutyl)indolin-2-ylidene)ethylidene)cyclohex-1-en-1-1)oxy)phenyl)propanoate hydrate tetrasodium] |  | not metabolized | 15.8% | 19.1% | approximately 35% |
